# Experimental data as given in ChEMBL document CHEMBL3046358, “Multiple Pro-197 substitutions in the acetolactate synthase of rigid ryegrass (Lolium rigidum) and their impact on chlorsulfuron activity and plant growth” (Crop Prot, 2012).
# Key:
# Lolium rigidum [1] = experiment: Herbicidal activity against Lolium rigidum accession A15 assessed as emergence rate applied at 4 times pre-emergence recommended rate relative to untreated control; assay type: functional
# Lolium rigidum [2] = experiment: Herbicidal activity against Lolium rigidum accession A08 assessed as emergence rate applied at 4 times pre-emergence recommended rate relative to untreated control; assay type: functional
# Lolium rigidum [3] = experiment: Herbicidal activity against Lolium rigidum accession A06 assessed as emergence rate applied at 4 times pre-emergence recommended rate relative to untreated control; assay type: functional
# [4] = target: T1, Acetolactate synthase (Lolium rigidum) (UniProt A7XBP7); experiment: Resistance index, ratio of I50 for acetolactate synthase Ser-197/Ser-197 mutant in Lolium rigidum accession A21 leaves extracts to I50 for acetolactate synthase in Lolium rigidum accession A01 leaves extracts
# T1 sequence (whole entry): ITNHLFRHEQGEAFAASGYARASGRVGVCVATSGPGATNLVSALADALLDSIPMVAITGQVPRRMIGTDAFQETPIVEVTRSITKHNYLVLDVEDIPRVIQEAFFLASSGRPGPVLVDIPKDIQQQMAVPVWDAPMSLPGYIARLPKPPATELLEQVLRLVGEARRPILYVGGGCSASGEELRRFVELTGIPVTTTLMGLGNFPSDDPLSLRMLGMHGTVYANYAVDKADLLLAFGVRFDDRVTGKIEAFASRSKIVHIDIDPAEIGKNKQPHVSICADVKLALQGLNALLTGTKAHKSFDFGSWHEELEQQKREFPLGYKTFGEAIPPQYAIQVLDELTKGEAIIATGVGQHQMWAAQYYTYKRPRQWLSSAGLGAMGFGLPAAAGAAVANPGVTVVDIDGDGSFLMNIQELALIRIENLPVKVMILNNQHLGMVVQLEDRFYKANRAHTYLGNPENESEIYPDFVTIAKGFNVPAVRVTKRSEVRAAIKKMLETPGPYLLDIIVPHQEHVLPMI
# [5] = target: T1, Acetolactate synthase (Lolium rigidum); experiment: Resistance index, ratio of I50 for acetolactate synthase Ala-197/Ala-197 mutant in Lolium rigidum accession A20 leaves extracts to I50 for acetolactate synthase in Lolium rigidum accession A01 leaves extracts
# [6] = target: T1, Acetolactate synthase (Lolium rigidum); experiment: Resistance index, ratio of I50 for acetolactate synthase Ala-197/Ala-197 mutant in Lolium rigidum accession A19 leaves extracts to I50 for acetolactate synthase in Lolium rigidum accession A01 leaves extracts
# [7] = target: T1, Acetolactate synthase (Lolium rigidum); experiment: Resistance index, ratio of I50 for acetolactate synthase […]/Leu-197 mutant in Lolium rigidum accession A18 leaves extracts to I50 for acetolactate synthase in Lolium rigidum accession A01 leaves extracts
# [8] = target: T1, Acetolactate synthase (Lolium rigidum); experiment: Resistance index, ratio of I50 for acetolactate synthase Ala-197/Ala-197 mutant in Lolium rigidum accession A16 leaves extracts to I50 for acetolactate synthase in Lolium rigidum accession A01 leaves extracts
# [9] = target: T1, Acetolactate synthase (Lolium rigidum); experiment: Resistance index, ratio of I50 for acetolactate synthase Pro-197/Pro-197 mutant in Lolium rigidum accession A09 leaves extracts to I50 for acetolactate synthase in Lolium rigidum accession A01 leaves extracts
# Lolium rigidum [10] = experiment: Herbicidal activity against Lolium rigidum accession A03 assessed as emergence rate applied at 1 times pre-emergence recommended rate applied in pots where terbufos had been incorporated into the soil relative to untreated control; assay type: functional
# Lolium rigidum [11] = experiment: Herbicidal activity against Lolium rigidum accession A14 assessed as emergence rate applied at 1 times pre-emergence recommended rate relative to untreated control; assay type: functional
# Lolium rigidum [12] = experiment: Herbicidal activity against Lolium rigidum accession A12 assessed as emergence rate applied at 1 times pre-emergence recommended rate relative to untreated control; assay type: functional
# Lolium rigidum [13] = experiment: Herbicidal activity against Lolium rigidum accession A11 assessed as emergence rate applied at 1 times pre-emergence recommended rate relative to untreated control; assay type: functional
# Lolium rigidum [14] = experiment: Herbicidal activity against Lolium rigidum accession A07 assessed as emergence rate applied at 1 times pre-emergence recommended rate relative to untreated control; assay type: functional
# Lolium rigidum [15] = experiment: Herbicidal activity against Lolium rigidum accession A05 assessed as emergence rate applied at 1 times pre-emergence recommended rate relative to untreated control; assay type: functional
# Acetolactate synthase [16] = target: T2, Acetolactate synthase (Lolium rigidum, UniProt A7XBP7); experiment: Inhibition of acetolactate synthase Leu-197/Leu-197 mutant in Lolium rigidum accession A08 leaves extracts by acetolactate production assay; settings: read-out: I50
# Acetolactate synthase [17] = target: T2, Acetolactate synthase; experiment: Inhibition of acetolactate synthase Pro-197/Pro-197 mutant in Lolium rigidum accession A09 leaves extracts by acetolactate production assay; settings: read-out: I50
# Acetolactate synthase [18] = target: T3, Acetolactate synthase (Lolium rigidum, UniProt A7XBP7); experiment: Inhibition of acetolactate synthase in Lolium rigidum accession A01 leaves extracts by acetolactate production assay; settings: read-out: I50
# T3 sequence (A7XBP7 whole entry): T1 sequence (whole entry)
# Lolium rigidum [19] = experiment: Herbicidal activity against Lolium rigidum accession A14 assessed as fresh weight reduction applied at 4 times pre-emergence recommended rate relative to untreated control; assay type: functional; design: scale not given: the % may be the effect or the level left
# Lolium rigidum [20] = experiment: Herbicidal activity against Lolium rigidum accession A12 assessed as fresh weight reduction applied at 4 times pre-emergence recommended rate relative to untreated control; assay type: functional; design: scale not given: the % may be the effect or the level left
# Lolium rigidum [21] = experiment: Herbicidal activity against Lolium rigidum accession A11 assessed as fresh weight reduction applied at 4 times pre-emergence recommended rate relative to untreated control; assay type: functional; design: scale not given: the % may be the effect or the level left
# Lolium rigidum [22] = experiment: Herbicidal activity against Lolium rigidum accession A10 assessed as fresh weight reduction applied at 4 times pre-emergence recommended rate relative to untreated control; assay type: functional; design: scale not given: the % may be the effect or the level left
# Lolium rigidum [23] = experiment: Herbicidal activity against Lolium rigidum accession A06 assessed as fresh weight reduction applied at 1 times pre-emergence recommended rate applied in pots where terbufos had been incorporated into the soil relative to untreated control; assay type: functional; design: scale not given: the % may be the effect or the level left
# Lolium rigidum [24] = experiment: Herbicidal activity against Lolium rigidum accession A15 assessed as emergence rate applied at 1 times pre-emergence recommended rate applied in pots where terbufos had been incorporated into the soil relative to untreated control; assay type: functional
# Lolium rigidum [25] = experiment: Herbicidal activity against Lolium rigidum accession A09 assessed as fresh weight reduction applied at 4 times pre-emergence recommended rate relative to untreated control; assay type: functional; design: scale not given: the % may be the effect or the level left
# Lolium rigidum [26] = experiment: Herbicidal activity against Lolium rigidum accession A02 assessed as fresh weight reduction applied at 4 times pre-emergence recommended rate relative to untreated control; assay type: functional; design: scale not given: the % may be the effect or the level left
# Lolium rigidum [27] = experiment: Herbicidal activity against Lolium rigidum accession A01 assessed as fresh weight reduction applied at 4 times pre-emergence recommended rate relative to untreated control; assay type: functional; design: scale not given: the % may be the effect or the level left
# Lolium rigidum [28] = experiment: Herbicidal activity against Lolium rigidum accession A14 assessed as fresh weight reduction applied at 1 times pre-emergence recommended rate applied in pots where terbufos had been incorporated into the soil relative to untreated control; assay type: functional; design: scale not given: the % may be the effect or the level left
# Lolium rigidum [29] = experiment: Herbicidal activity against Lolium rigidum accession A10 assessed as fresh weight reduction applied at 1 times pre-emergence recommended rate applied in pots where terbufos had been incorporated into the soil relative to untreated control; assay type: functional; design: scale not given: the % may be the effect or the level left
# Lolium rigidum [30] = experiment: Herbicidal activity against Lolium rigidum accession A13 assessed as fresh weight reduction applied at 1 times pre-emergence recommended rate relative to untreated control; assay type: functional; design: scale not given: the % may be the effect or the level left
# Lolium rigidum [31] = experiment: Herbicidal activity against Lolium rigidum accession A12 assessed as fresh weight reduction applied at 1 times pre-emergence recommended rate relative to untreated control; assay type: functional; design: scale not given: the % may be the effect or the level left
# Lolium rigidum [32] = experiment: Herbicidal activity against Lolium rigidum accession A11 assessed as fresh weight reduction applied at 1 times pre-emergence recommended rate relative to untreated control; assay type: functional; design: scale not given: the % may be the effect or the level left
# Lolium rigidum [33] = experiment: Herbicidal activity against Lolium rigidum accession A09 assessed as fresh weight reduction applied at 1 times pre-emergence recommended rate relative to untreated control; assay type: functional; design: scale not given: the % may be the effect or the level left
# Lolium rigidum [34] = experiment: Herbicidal activity against Lolium rigidum accession A08 assessed as fresh weight reduction applied at 1 times pre-emergence recommended rate relative to untreated control; assay type: functional; design: scale not given: the % may be the effect or the level left
# Lolium rigidum [35] = experiment: Herbicidal activity against Lolium rigidum accession A05 assessed as fresh weight reduction applied at 1 times pre-emergence recommended rate relative to untreated control; assay type: functional; design: scale not given: the % may be the effect or the level left
compound,measurement,setting,value
COc1nc(C)nc(NC(=O)NS(=O)(=O)c2ccccc2Cl)n1 [CHLORSULFURON],Activity,Lolium rigidum [1],2%
same,Activity,Lolium rigidum [2],45%
same,Activity,Lolium rigidum [3],84%
same,Ratio,[4],53
same,Ratio,[5],36
same,Ratio,[6],620
same,Ratio,[7],54
same,Ratio,[8],257
same,Ratio,[9],1
same,Activity,Lolium rigidum [10],1%
same,Activity,Lolium rigidum [11],1%
same,Activity,Lolium rigidum [12],2%
same,Activity,Lolium rigidum [13],42%
same,Activity,Lolium rigidum [14],89%
same,Activity,Lolium rigidum [15],97%
same,IC50,Acetolactate synthase [16],16900 nM
same,IC50,Acetolactate synthase [17],30 nM
same,IC50,Acetolactate synthase [18],30 nM
same,Activity,Lolium rigidum [19],96%
same,Activity,Lolium rigidum [20],99%
same,Activity,Lolium rigidum [21],90%
same,Activity,Lolium rigidum [22],100%
same,Activity,Lolium rigidum [23],0%
same,Activity,Lolium rigidum [24],0%
same,Activity,Lolium rigidum [25],95%
same,Activity,Lolium rigidum [26],97%
same,Activity,Lolium rigidum [27],99%
same,Activity,Lolium rigidum [28],98%
same,Activity,Lolium rigidum [29],97%
same,Activity,Lolium rigidum [30],98%
same,Activity,Lolium rigidum [31],95%
same,Activity,Lolium rigidum [32],54%
same,Activity,Lolium rigidum [33],78%
same,Activity,Lolium rigidum [34],9%
same,Activity,Lolium rigidum [35],0%
